ChEMBL document CHEMBL6083240, “Design, synthesis and biological evaluation of arylpropylamine derivatives as potential multi-target antidepressants” (Bioorg Med Chem, 2024)
The source made the active and inactive calls. The rule behind the calls is not given here.

How the values were obtained:
[1] = target: Histamine H4 receptor (Homo sapiens, UniProt Q9H3N8); assay: Binding affinity to H4 receptor (unknown origin)
[2] = target: Sodium-dependent serotonin transporter (Rattus norvegicus) (UniProt P31652); assay: Agonist activity at rat cerebral cortex membrane SERT at 10 uM incubated for 10 mins in presence of [3H]5-HT relative to control; type: cell membranes
Sodium-dependent serotonin transporter (Rattus norvegicus), sequence (P31652 whole entry): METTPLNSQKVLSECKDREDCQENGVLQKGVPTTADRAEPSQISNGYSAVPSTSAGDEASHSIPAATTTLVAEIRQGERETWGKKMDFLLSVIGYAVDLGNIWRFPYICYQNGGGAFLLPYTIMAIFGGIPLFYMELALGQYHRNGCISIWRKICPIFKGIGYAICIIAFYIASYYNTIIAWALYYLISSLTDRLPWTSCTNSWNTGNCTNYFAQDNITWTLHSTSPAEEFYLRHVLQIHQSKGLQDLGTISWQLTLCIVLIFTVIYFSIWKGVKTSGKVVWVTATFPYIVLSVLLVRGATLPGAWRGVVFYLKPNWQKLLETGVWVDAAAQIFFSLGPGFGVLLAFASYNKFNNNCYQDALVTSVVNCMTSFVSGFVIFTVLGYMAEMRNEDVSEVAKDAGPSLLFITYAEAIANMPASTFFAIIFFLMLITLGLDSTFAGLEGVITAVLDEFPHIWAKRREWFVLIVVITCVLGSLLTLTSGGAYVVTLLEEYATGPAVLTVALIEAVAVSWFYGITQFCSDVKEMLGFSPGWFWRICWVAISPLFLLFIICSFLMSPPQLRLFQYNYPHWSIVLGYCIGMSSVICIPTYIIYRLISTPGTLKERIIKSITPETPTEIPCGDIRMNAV

[3] = target: T1, Transporter (Rattus norvegicus, UniProt Q63380); assay: Displacement of [3H]-nisoxetine from NET in rat hippocampal membrane incubated for 8 hrs by liquid scintillation counting method; type: cell membranes, Hippocampus
T1 sequence (Q63380 whole entry): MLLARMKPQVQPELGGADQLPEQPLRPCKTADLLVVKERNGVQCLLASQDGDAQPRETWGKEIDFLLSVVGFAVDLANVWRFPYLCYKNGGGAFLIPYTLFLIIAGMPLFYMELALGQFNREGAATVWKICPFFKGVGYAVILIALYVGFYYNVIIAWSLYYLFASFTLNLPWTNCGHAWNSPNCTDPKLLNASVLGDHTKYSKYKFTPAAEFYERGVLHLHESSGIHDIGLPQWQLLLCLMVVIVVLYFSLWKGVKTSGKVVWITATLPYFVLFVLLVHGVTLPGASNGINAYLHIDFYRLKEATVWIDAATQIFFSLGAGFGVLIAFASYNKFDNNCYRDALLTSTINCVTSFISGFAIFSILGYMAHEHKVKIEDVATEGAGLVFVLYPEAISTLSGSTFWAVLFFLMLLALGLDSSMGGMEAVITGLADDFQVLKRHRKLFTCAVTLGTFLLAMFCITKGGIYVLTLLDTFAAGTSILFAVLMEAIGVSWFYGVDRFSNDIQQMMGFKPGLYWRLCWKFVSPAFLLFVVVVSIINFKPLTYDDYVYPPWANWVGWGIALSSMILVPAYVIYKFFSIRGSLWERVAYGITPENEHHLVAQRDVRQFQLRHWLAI

[4] = tested on: Mus musculus; assay: Antidepressant activity in Kunming mouse chronic unpredictable mild stress model assessed as increase in sucrose preference at 2 to 6 mg/kg, IG measured after 3 weeks; type: functional, organism-based; settings: dose 2-6 mg/kg
[5] = Acute toxicity in po dosed Sprague-Dawley rat assessed as mortality rate measured after 24 hrs; type: organism-based; settings: in vivo
[6] = target: T2, 5-hydroxytryptamine receptor 2A (Homo sapiens, UniProt P28223); assay: Antagonist activity at 5-HT2A in HEK293 cells incubated for 60 mins by FLIPR assay; type: cell-based
T2 sequence (P28223 whole entry): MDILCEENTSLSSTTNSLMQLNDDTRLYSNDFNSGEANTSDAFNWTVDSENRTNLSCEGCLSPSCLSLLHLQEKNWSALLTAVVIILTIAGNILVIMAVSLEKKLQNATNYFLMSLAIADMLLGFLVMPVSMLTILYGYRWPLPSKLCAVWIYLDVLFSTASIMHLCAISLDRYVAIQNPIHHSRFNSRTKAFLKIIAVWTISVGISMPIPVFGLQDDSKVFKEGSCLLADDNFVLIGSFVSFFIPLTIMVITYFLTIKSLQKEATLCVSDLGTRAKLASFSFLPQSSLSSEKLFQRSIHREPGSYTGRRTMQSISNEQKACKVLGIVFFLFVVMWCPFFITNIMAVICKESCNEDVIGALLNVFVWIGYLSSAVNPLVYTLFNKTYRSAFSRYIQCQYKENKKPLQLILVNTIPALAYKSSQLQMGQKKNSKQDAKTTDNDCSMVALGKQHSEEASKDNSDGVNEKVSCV

[7] = tested on: Mus musculus; assay: Antidepressant activity in IG dosed Kunming mouse assessed as decrease in immobility time by measuring minimal effective dose by tail suspension test; type: functional
[8] = target: Sigma non-opioid intracellular receptor 1 (Homo sapiens, UniProt Q99720); assay: Binding affinity to sigma 1 receptor (unknown origin)
Sigma non-opioid intracellular receptor 1, sequence (Q99720 whole entry): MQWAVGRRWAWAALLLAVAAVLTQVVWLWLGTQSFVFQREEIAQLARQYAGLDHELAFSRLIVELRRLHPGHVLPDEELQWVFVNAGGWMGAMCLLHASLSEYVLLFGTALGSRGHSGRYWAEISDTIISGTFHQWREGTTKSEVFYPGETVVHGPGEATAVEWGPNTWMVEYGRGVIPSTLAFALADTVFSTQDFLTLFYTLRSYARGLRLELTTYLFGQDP

[9] = tested on: histamine H1 receptor; assay: Displacement of [3H]-pyrilamine from H1 receptor in guinea pig cerebellum membrane incubated for 60 mins by liquid scintillation counting method; type: toxicity, cell membranes, Cavia porcellus; settings: probe [3H]-pyrilamine
[10] = Oral bioavailability in CD1 mouse at 15 mg/kg measured upto 24 hrs by LC-MS analysis; type: ADME, organism-based; settings: in vivo
[11] = target: 5-hydroxytryptamine receptor 2C (Homo sapiens, UniProt P28335); assay: Antagonist activity at 5-HT2C in HEK293 cells incubated for 60 mins by FLIPR assay; type: cell-based
5-hydroxytryptamine receptor 2C, sequence (P28335 whole entry): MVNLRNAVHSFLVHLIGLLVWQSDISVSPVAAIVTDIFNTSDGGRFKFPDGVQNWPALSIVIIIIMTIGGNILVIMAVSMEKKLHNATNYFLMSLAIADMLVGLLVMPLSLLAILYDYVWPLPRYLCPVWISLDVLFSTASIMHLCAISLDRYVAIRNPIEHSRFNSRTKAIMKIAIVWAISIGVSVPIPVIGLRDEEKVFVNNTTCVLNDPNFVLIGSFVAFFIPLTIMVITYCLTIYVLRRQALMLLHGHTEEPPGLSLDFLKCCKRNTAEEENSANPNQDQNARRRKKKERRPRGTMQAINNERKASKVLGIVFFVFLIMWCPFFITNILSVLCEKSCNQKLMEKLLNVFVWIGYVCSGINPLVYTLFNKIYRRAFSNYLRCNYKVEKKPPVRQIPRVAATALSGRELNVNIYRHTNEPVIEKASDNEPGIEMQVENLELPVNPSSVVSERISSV

[12] = target: T2, 5-hydroxytryptamine receptor 2A; assay: Agonist activity at 5-HT2A in HEK293 cells at 10 uM incubated for 60 mins by FLIPR assay relative to control; type: functional, cell-based; settings: filed as agonist
[13] = Tmax in CD1 mouse at 2 mg/kg, iv measured upto 10 hrs by LC-MS analysis; type: ADME, organism-based; settings: in vivo
[14] = target: Histamine H3 receptor (Homo sapiens, UniProt Q9Y5N1); assay: Binding affinity to H3 receptor (unknown origin)
[15] = target: T3, Alpha-1A adrenergic receptor (Rattus norvegicus, UniProt P43140); assay: Displacement of [3H]-prazosin from adrenergic alpha-1 receptor in rat cerebral cortex incubated for 60 mins by liquid scintillation counting method; type: toxicity, tissue-based
T3 sequence (P43140 whole entry): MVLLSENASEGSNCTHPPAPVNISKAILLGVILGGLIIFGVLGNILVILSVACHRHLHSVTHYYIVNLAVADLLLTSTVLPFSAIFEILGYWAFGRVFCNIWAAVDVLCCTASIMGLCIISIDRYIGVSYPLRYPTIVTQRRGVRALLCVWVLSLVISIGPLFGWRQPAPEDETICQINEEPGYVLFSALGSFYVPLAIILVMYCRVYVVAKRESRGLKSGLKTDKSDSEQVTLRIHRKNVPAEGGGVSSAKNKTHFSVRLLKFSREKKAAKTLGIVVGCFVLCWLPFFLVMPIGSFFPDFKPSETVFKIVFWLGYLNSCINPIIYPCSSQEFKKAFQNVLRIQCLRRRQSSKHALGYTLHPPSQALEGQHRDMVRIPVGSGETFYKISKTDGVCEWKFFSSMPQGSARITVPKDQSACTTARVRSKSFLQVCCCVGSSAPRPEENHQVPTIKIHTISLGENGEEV

[16] = target: Alpha-2A adrenergic receptor (Homo sapiens, UniProt P08913); assay: Binding affinity to alpha-2 adrenergic receptor (unknown origin)
[17] = target: T1, Transporter; assay: Antagonist activity at rat cerebral cortex membrane NET incubated for 10 mins in presence of [3H]-NE; type: cell membranes
[18] = target: Sigma intracellular receptor 2 (Homo sapiens, UniProt Q5BJF2); assay: Binding affinity to sigma 2 receptor (unknown origin)
[19] = AUC(0 to t) in CD1 mouse at 15 mg/kg, po measured upto 24 hrs by LC-MS analysis; type: ADME, organism-based; settings: in vivo
[20] = AUC(0 to infinity) in CD1 mouse at 2 mg/kg, iv measured upto 10 hrs by LC-MS analysis; type: ADME, organism-based; settings: in vivo
[21] = target: Muscarinic acetylcholine receptor M3 (Homo sapiens, UniProt P20309); assay: Binding affinity to M3 receptor (unknown origin)
Muscarinic acetylcholine receptor M3, sequence (P20309 whole entry): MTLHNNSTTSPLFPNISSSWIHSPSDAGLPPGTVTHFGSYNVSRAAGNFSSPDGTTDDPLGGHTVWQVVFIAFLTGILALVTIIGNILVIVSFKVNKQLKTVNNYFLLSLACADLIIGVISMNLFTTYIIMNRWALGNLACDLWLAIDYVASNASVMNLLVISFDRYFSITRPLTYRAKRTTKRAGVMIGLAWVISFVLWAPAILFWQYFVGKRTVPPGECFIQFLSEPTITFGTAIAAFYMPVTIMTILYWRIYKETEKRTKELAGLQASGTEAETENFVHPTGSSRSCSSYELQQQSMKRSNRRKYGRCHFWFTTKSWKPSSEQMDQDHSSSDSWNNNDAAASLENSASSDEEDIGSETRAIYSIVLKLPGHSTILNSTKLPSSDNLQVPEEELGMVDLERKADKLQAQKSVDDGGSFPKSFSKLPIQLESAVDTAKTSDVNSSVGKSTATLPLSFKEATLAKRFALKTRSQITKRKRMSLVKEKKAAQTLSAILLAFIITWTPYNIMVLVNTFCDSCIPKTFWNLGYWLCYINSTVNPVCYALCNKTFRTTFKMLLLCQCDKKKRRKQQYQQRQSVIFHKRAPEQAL

[22] = target: 5-hydroxytryptamine receptor 2A (Rattus norvegicus, UniProt P14842); assay: Displacement of [3H]-ketanserin from 5-HT2A in rat cerebral cortex incubated for 15 mins by liquid scintillation counting method; type: tissue-based
5-hydroxytryptamine receptor 2A (Rattus norvegicus, UniProt P14842), sequence (P14842 whole entry): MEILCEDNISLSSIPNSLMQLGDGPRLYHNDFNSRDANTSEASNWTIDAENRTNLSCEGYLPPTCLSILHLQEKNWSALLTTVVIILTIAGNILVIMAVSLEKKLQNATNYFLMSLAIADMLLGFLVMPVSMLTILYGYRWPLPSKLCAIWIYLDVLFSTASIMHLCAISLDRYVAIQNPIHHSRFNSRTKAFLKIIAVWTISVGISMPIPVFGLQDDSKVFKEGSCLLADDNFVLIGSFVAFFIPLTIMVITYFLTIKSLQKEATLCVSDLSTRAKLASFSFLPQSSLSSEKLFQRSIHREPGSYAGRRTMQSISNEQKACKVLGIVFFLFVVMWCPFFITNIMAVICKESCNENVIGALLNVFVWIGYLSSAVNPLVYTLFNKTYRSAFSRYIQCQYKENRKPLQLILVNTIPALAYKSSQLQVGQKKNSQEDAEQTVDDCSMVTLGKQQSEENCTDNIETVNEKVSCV

[23] = tested on: Mus musculus; assay: Antidepressant activity in Kunming mouse chronic unpredictable mild stress model assessed as increase in sucrose preference at 0.5 to 6 mg/kg, IG measured after 1 week; type: functional, organism-based; settings: dose 0.5-6 mg/kg, time 1.0 weeks
[24] = target: Transporter (Rattus norvegicus) (UniProt Q63380); assay: Agonist activity at rat cerebral cortex membrane NET at 10 uM incubated for 10 mins in presence of [3H]-NE relative to control; type: cell membranes
Transporter (Rattus norvegicus), sequence (Q63380 as listed by the source): as the sequence (Q63380 whole entry) above

[25] = Tmax in CD1 mouse at 15 mg/kg, po measured upto 24 hrs by LC-MS analysis; type: ADME, organism-based; settings: in vivo
[26] = target: Histamine H2 receptor (Homo sapiens, UniProt P25021); assay: Binding affinity to H2 receptor (unknown origin)
[27] = target: Muscarinic acetylcholine receptor M4 (Homo sapiens, UniProt P08173); assay: Binding affinity to M4 receptor (unknown origin)
Muscarinic acetylcholine receptor M4, sequence (P08173 whole entry): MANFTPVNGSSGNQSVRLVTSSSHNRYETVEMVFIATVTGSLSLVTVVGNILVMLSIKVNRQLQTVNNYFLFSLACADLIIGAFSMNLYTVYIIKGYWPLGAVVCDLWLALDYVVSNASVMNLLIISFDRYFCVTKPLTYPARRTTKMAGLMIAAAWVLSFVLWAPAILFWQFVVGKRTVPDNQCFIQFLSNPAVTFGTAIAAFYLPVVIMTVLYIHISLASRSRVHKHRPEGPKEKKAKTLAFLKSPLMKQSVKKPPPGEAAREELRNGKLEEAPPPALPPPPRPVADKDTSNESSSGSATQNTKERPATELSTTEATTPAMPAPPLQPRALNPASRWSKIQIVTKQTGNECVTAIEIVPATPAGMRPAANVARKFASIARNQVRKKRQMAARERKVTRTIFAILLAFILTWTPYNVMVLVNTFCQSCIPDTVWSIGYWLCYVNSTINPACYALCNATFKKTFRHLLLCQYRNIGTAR

[28] = target: Muscarinic acetylcholine receptor M2 (Homo sapiens, UniProt P08172); assay: Binding affinity to M2 receptor (unknown origin)
Muscarinic acetylcholine receptor M2, sequence (P08172 whole entry): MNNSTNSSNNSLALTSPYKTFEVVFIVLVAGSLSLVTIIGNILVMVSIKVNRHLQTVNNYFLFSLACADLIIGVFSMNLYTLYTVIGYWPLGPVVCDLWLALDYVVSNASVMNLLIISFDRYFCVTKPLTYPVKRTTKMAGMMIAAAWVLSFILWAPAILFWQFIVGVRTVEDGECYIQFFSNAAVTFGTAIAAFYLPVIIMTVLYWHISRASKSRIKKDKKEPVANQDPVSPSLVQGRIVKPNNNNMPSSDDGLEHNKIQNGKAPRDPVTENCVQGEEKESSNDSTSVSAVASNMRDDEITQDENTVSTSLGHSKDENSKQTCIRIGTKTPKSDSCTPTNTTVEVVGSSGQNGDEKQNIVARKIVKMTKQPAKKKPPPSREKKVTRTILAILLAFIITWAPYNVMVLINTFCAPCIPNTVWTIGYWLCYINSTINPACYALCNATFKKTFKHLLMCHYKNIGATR

[29] = target: Muscarinic acetylcholine receptor M1 (Homo sapiens, UniProt P11229); assay: Binding affinity to M1 receptor (unknown origin)
Muscarinic acetylcholine receptor M1, sequence (P11229 whole entry): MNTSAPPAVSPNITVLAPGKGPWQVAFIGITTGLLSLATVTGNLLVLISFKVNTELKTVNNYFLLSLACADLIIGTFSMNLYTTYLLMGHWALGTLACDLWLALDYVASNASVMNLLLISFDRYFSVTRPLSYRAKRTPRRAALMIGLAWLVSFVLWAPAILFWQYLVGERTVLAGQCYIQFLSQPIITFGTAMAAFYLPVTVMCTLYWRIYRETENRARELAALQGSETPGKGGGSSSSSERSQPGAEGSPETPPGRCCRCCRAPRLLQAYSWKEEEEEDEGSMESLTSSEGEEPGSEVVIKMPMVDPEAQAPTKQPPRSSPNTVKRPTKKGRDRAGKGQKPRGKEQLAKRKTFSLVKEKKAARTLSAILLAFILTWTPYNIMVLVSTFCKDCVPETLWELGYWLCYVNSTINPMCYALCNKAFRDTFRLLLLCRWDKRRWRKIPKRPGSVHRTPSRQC

[30] = Cmax in CD1 mouse at 2 mg/kg, iv measured upto 10 hrs by LC-MS analysis; type: ADME, organism-based; settings: in vivo

CN(C)CC[C@@H](Oc1cccc2c1OCO2)c1ccc(F)cc1.O=C(O)C(=O)O
Ki [1]: > 1000 nM | Activity [2]: 2.2% | Ki [3]: 2.3 nM | Activity [4]: Active | LD50 at 24 h [5]: 560 mg/kg | IC50 [6]: 36.1 nM | Activity [7]: Dose-dependent-effect | minimal effective dose ([7]; po, read-out: MED): 6.4 mg/kg | Ki [8]: > 1000 nM | Ki at 60 min [9]: 1000 nM | bioavailability [10]: 20.3% | IC50 [11]: 87.5 nM | Activity [12]: 103% | Tmax [13]: 4.8 min | Ki [14]: > 1000 nM | Ki [15]: 1450 nM | Ki [16]: > 1000 nM | IC50 [17]: 87 nM | Ki [18]: > 1000 nM | AUC(0-t) at 24 h [19]: 462 ng·h/mL | AUC(0-inf) [20]: 310 ng·h/mL | Ki [21]: > 1000 nM | Ki [22]: 26.4 nM | Activity [23]: inactive | Activity [24]: 5.6% | Tmax [25]: 30 min | Ki [26]: > 1000 nM | Ki [27]: > 1000 nM | Ki [28]: > 1000 nM | Ki [29]: 640 nM | Cmax [30]: 420 ng/mL
